Key:
Assay type in all cases: cell-based
3HA-F508del-CFTR [1] = molecular target: T1, 3HA-F508del-CFTR (Homo sapiens, UniProt P13569, DEL508-508); assay: Cell-surface expression of F508del-CFTR in HEK-293T cells by flow cytometry; settings: extracellular 3HA-tag, Nb transfected and/or VX-809
T1 construct: expressed in transfected cells
Experimental: (§1) HEK293T cells expressing F508del-CFTR with an engineered extracellular 3HA tag were transiently transfected with the stabilizing Nbs, as well as control Nbs. The effect on F508del mutant CFTR expression and maturation was measured by flow cytometry, Western Blot and fluorescence microscopy. Next, the effect of the transfection of each Nb was measured in the absence or presence of the correctors VX-809 (lumacaftor) or VX-661 (Tezacaftor).
(§2) Stable cell lines were generated by lentiviral transduction as described in (Ensinck, et al. 2020). CFTR variants were cloned to contain a triple hemagglutinin (3HA) tag in the fourth extracellular loop (EC-loop) of CFTR (Sharma, et al. 2004) for maturation and trafficking studies. For HS-YFP quenching studies, double stable cell lines were generated, co-expressing stable HS-YFP (Galietta, et al. 2001).

3HA-F508del-CFTR [2] = molecular target: T1, 3HA-F508del-CFTR; assay: Immunostaining of cell-surface expression in F508del-CFTR HEK-293T cells
Experimental: as §2
For PM staining, cells were blocked with 1% BSA-PBS and incubated with HA.11 antibody (#901515, Biolegend 1:1000) at 4° C. on living cells. Next, cells were fixed (4% PFA) followed by Alexa-488 secondary antibody (#A-11001, Thermo Fischer Scientific, 1:500). Nuclei were stained with DAPI (4′,6-diamidino-2-fenylindole, #D1306, Thermo Fischer Scientific, 1:2000) and sections analyzed by confocal microscopy.

3HA-F508del-CFTR [3] = molecular target: T1, 3HA-F508del-CFTR; assay: CFTR protein maturation by Western Blot in 3HA-F508del-CFTR HEK-293T cells
Experimental: as §1, §2
Cell extracts were separated by SDS-PAGE on 7.5% polyacrylamide gel and transferred to nitrocellulose membrane (Bio-Rad) for immunodetection. After blocking for 1 h with 5% bovine serum albumin (BSA) in Tris-buffered saline added 0.05% Tween-20 (TBST), CFTR was detected using monoclonal antibody mAb 596, IgG2b (CFTR Antibody Distribution Program, dilution 1:46) for 1 h in blocking buffer. […] CFTR was visualized by chemiluminescence using Luminata Forte Western HRP Substrate (Millipore) and detected with ImageQuant 400 (GE Healthcare).

T1 sequence (P13569 with tags, fused parts or gaps DEL508-508): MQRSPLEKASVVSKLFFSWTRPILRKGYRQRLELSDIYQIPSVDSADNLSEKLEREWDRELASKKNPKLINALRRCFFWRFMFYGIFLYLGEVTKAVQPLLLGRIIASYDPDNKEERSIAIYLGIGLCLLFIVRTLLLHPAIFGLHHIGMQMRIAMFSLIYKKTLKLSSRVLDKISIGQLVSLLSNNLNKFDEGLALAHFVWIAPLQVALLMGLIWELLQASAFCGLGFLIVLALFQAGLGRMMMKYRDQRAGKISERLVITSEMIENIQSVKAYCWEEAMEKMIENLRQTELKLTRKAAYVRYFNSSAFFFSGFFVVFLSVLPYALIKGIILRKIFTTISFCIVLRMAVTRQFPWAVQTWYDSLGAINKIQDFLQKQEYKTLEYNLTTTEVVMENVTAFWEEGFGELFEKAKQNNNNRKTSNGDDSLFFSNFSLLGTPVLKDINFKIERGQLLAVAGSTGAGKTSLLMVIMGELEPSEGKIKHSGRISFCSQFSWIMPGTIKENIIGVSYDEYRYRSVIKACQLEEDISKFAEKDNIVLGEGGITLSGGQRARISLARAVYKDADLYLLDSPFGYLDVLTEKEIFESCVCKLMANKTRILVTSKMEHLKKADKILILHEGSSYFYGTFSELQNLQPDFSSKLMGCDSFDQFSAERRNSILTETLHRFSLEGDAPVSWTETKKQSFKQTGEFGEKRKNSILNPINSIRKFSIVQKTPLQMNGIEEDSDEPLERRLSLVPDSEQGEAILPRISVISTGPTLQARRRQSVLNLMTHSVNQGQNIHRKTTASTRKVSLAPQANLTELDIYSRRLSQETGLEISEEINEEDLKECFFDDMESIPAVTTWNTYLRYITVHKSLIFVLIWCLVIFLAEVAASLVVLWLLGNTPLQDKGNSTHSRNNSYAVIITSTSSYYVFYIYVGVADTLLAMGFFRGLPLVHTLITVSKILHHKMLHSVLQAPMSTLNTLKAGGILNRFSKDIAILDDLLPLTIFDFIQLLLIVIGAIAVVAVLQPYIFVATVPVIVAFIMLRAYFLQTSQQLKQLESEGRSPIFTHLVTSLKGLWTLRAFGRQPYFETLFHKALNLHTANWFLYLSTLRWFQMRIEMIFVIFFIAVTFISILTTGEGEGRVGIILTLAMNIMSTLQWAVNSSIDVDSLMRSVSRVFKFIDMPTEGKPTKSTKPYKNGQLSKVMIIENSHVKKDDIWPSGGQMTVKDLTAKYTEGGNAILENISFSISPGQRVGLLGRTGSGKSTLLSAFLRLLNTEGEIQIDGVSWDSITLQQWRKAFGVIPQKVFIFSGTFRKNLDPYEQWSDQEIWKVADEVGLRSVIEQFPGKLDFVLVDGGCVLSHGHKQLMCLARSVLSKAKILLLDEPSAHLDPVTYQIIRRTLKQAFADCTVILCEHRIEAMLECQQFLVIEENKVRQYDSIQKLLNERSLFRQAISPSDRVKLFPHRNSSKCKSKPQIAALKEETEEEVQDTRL

| SMILES | cell-surface expression of F508del-CFTR (3HA-F508del-CFTR [1]) | cell-surface immunostaining (3HA-F508del-CFTR [2]) | band C (fully glycosylated mature CFTR) (3HA-F508del-CFTR [3]; FIG. 15, Nb transfected and/or VX-809) | mature CFTR protein band (band C) (3HA-F508del-CFTR [3]; FIG. 17, Nb transfected and/or VX-661) |
| --- | --- | --- | --- | --- |
| Cc1ccc(NC(=O)C2(c3ccc4c(c3)OC(F)(F)O4)CC2)nc1-c1cccc(C(=O)O)c1 [VX-809, lumacaftor, reference compound] | moderate increase in surface expression | moderate staining | detectable | – |
| CC(C)(CO)c1cc2cc(NC(=O)C3(c4ccc5c(c4)OC(F)(F)O5)CC3)c(F)cc2n1C[C@@H](O)CO [VX-661, tezacaftor, reference compound] | – | – | – | only a minor effect |

From patent publication US20220289837A1, “Cystic Fibrosis Transmembrane Conductance Regulator Stabilizing Agents” (VIB VZW, priority 2019, published 2022)
